From patent US20210087156A1, “PHARMACEUTICALLY ACCEPTABLE SALTS OF BENZODICYCLOALKANE DERIVATIVE, P[…] THEREOF, AND APPLICATION THEREOF” (priority 2018, published 2021)
≈ marks a conversion by molar mass, not a printed value.

Key:
Format in all cases: physicochemical
[1] = Stability test of free base, crystal form A and crystal form C (content and related substance)
Protocol: The crystal form and purity change were measured respectively on 3rd and 7th day. The results are shown in Table 6, FIGS. 22, 23, 24 and 25. […]

[2] = Solubility test at room temperature
Protocol: The solubility of the crystal form A, the crystal form C and the free base in 0.1 M HCL, pH 4.5, or pH 6.8 buffer or water was tested at room temperature. In the test, the standard curves of the crystal form A, the crystal form C and the free base were plotted respectively. Subsequently, a appropriate amount of the crystal form A, the crystal form C and the free base was weighed respectively, to which was added a appropriate amount of solvent. The mixture was shaken at room temperature for 24 h, centrifuged. The supernatant was taken and the solubility was determined. The results are shown in Table 7, (the concentration unit is mg/mi).

[3] = Properties of crystal form I (DVS hygroscopicity, stability)
Protocol: The Dynamic Vapor Sorption (DVS) curve was acquired on the DVS Intrinsic of Surface Measurement Systems.
About 10 mg of the free base of the compound of formula X prepared according to the method of Example 1 was weighed into a glass vial, and an appropriate amount of ethyl acetate was added to obtain a nearly saturated solution, which was fully dissolved by ultrasonication and filtered. 20-200 uL of corresponding solvent was added to the clear filtrate, which was stood and the solvent was slowly evaporated at room temperature. After the solvent was completely evaporated, the resulting solid was collected and subjected to an XRPD test.

[4] = 5° C., 0 d (control), listed as From A
[5] = 40° C./75% RH, 3 d, listed as From A
[6] = 40° C./75% RH, 7 d, listed as From A
[7] = 0.1M HCL, room temperature, shaken 24 h
[8] = H2O, room temperature, shaken 24 h
[9] = pH 4.5 buffer, room temperature, shaken 24 h
[10] = pH 6.8 buffer, room temperature, shaken 24 h
[11] = 40° C./75% RH, 3 d, listed as From C
[12] = 40° C./75% RH, 7 d, listed as From C

C[C@@]12CCCCC[C@@H](Cc3ccc(OC(=O)NC4COC4)cc31)[C@@H]2N [Form A]
character ([1]; 5° C., 0 d (control)): off-white solid | Area (%) [1, 4]: 99.82% | Total impurity (%) [1, 4]: 0.18% | RRT(%) 1.25 (related substance) ([1]; 5° C., 0 d, — = below detection limit): 0.18% | RRT(%) 1.25 (related substance) ([1]; 40° C./75% RH, 3 d): 0.14% | character ([1]; 40° C./75% RH, 3 d): off-white solid | Area (%) [1, 5]: 99.47% | RRT(%) 0.81 (related substance) [1, 5]: 0.39% | Total impurity (%) [1, 5]: 0.53% | RRT(%) 1.25 (related substance) ([1]; 40° C./75% RH, 7 d): 0.17% | character ([1]; 40° C./75% RH, 7 d): off-white solid | Area (%) [1, 6]: 99.28% | RRT(%) 0.81 (related substance) [1, 6]: 0.54% | Total impurity (%) [1, 6]: 0.72% | RRT(%) 1.25 (related substance) ([1]; 60° C., 3 d): 0.20% | character ([1]; 60° C., 3 d): off-white solid | Area (%) ([1]; 60° C., 3 d, listed as From A): 99.68% | RRT(%) 0.81 (related substance) ([1]; 60° C., 3 d, listed as From A): 0.12% | Total impurity (%) ([1]; 60° C., 3 d, listed as From A): 0.32% | RRT(%) 1.25 (related substance) ([1]; 60° C., 7 d): 0.30% | character ([1]; 60° C., 7 d): off-white solid | Area (%) ([1]; 60° C., 7 d, listed as From A): 99.58% | RRT(%) 0.81 (related substance) ([1]; 60° C., 7 d, listed as From A): 0.11% | Total impurity (%) ([1]; 60° C., 7 d, listed as From A): 0.42% | Final pH [2, 7]: 0.91 | phenomenon [2, 7]: Flocculent | solubility at 24 h ([2]; 0.1 M HCl, simulated gastric fluid, thermodynamic from solid, room temperature, shaken 24 h): 17.8 mg/mL (≈ 51.8 mM) | Final pH [2, 8]: 3.86 | phenomenon [2, 8]: Flocculent | solubility [2, 8]: 8.25 mg/mL (≈ 24 mM) | Final pH [2, 9]: 3.92 | phenomenon [2, 9]: clarified | solubility [2, 9]: ≥8.36 mg/mL | Final pH [2, 10]: 5.86 | phenomenon [2, 10]: clarified | solubility [2, 10]: ≥11.03 mg/mL

C[C@@]12CCCCC[C@@H](Cc3ccc(OC(=O)NC4COC4)cc31)[C@@H]2N [Form C]
character ([1]; 5° C., 0 d (control)): off-white solid | Area (%) ([1]; 5° C., 0 d (control), listed as From C): 100.00% | RRT(%) 0.70 (related substance) ([1]; 40° C./75% RH, 3 d): 3.60% | RRT(%) 1.14 (related substance) ([1]; 40° C./75% RH, 3 d): 0.93% | character ([1]; 40° C./75% RH, 3 d): off-white solid | Area (%) [1, 11]: 94.92% | RRT(%) 0.81 (related substance) [1, 11]: 0.54% | Total impurity (%) [1, 11]: 5.08% | RRT(%) 0.70 (related substance) ([1]; 40° C./75% RH, 7 d): 3.04% | RRT(%) 1.14 (related substance) ([1]; 40° C./75% RH, 7 d): 0.92% | character ([1]; 40° C./75% RH, 7 d): off-white solid | Area (%) [1, 12]: 95.19% | RRT(%) 0.81 (related substance) [1, 12]: 0.85% | Total impurity (%) [1, 12]: 4.81% | RRT(%) 0.70 (related substance) ([1]; 60° C., 3 d): 3.68% | RRT(%) 1.14 (related substance) ([1]; 60° C., 3 d): 1.44% | character ([1]; 60° C., 3 d): off-white solid | Area (%) ([1]; 60° C., 3 d, listed as From C): 94.64% | RRT(%) 0.81 (related substance) ([1]; 60° C., 3 d, listed as From C): 0.24% | Total impurity (%) ([1]; 60° C., 3 d, listed as From C): 5.36% | RRT(%) 0.70 (related substance) ([1]; 60° C., 7 d): 3.60% | RRT(%) 1.14 (related substance) ([1]; 60° C., 7 d): 1.52% | character ([1]; 60° C., 7 d): off-white solid | Area (%) ([1]; 60° C., 7 d, listed as From C): 94.62% | RRT(%) 0.81 (related substance) ([1]; 60° C., 7 d, listed as From C): 0.26% | Total impurity (%) ([1]; 60° C., 7 d, listed as From C): 5.38% | Final pH [2, 7]: 1.53 | phenomenon [2, 7]: clarified | solubility [2, 7]: ≥33.87 mg/mL | Final pH [2, 8]: 3.45 | phenomenon [2, 8]: clarified | solubility [2, 8]: ≥26.05 mg/mL | solubility compared to the free base (in words) ([2]; pH 4.5, pH 6.8, or 0.1 M HCL): increased significantly | Final pH [2, 9]: 3.47 | phenomenon [2, 9]: clarified | solubility [2, 9]: ≥25.50 mg/mL | Final pH [2, 10]: 3.84 | phenomenon [2, 10]: clarified | solubility [2, 10]: ≥26.11 mg/mL

C[C@@]12CCCCC[C@@H](Cc3ccc(OC(=O)NC4COC4)cc31)[C@@H]2N [Form I]
stability (in words) [3]: good stability | hygroscopicity (DVS curve) ([3]; DVS, 25° C., 0% RH~95% RH): almost has no hygroscopicity
